11 molecules from patent publication US8426408B2, “Pyrimidine inhibitors of kinases” (AbbVie Inc., priority 2009, dated 2013) can be followed below.

Bounds are passed on as bounds.

The Ki is a dissociation constant, usually derived from enzyme kinetics or from competition with a known ligand.

Common to all, as to assay type: biochemical
The target of assay [1] is T1, Aurora A (Homo sapiens, UniProt O14965).
T1 sequence (O14965 1-403): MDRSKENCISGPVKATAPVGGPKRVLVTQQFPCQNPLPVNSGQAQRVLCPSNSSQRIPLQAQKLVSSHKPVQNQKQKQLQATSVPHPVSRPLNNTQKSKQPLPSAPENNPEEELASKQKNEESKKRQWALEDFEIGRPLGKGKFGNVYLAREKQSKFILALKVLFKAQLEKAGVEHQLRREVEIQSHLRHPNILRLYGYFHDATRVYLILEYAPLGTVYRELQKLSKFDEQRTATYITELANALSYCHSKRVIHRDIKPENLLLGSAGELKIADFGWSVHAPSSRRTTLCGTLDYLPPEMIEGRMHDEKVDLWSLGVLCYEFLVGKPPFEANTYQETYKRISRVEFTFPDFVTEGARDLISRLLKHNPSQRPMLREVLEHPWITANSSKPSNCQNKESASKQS
As to the kind of experiment: Aurora A enzyme inhibition (time-resolved fluorescence, STK substrate-2). The following applies: 1 mM ATP. The method, boiled down: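 Active enzyme incubated 1 h with biotinylated STK substrate-2, 1 mM ATP and inhibitor in Hepes pH 7.4 with MgCl2, orthovanadate and Triton X-100. EDTA stop; phosphopeptide detected by Eu-cryptate anti-phospho-STK/SA-XL665 TR-FRET (665/615 nm ratio); IC50 by exponential fit.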

Assay [2] deals with KDR (Homo sapiens, UniProt P35968). As to the kind of experiment: KDR HTRF in vitro kinase assay. Also noted: purified enzyme (His6-KDR 789-1354, MW 63 kD); His6 (N). The following applies: 1 mM ATP; read-out: KDR enzyme inhibition data (Ki). The method, boiled down:
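His6-KDR 789-1354 (7 ng/well) with 0.5 μM biotinylated peptide substrate and 1 mM ATP in HEPES pH 7.1, MgCl2/MnCl2, 60 min at room temperature. EDTA-quenched, detected by streptavidin-XL-665 plus Eu-kryptate anti-phosphotyrosine HTRF after 3 h; IC50 from 620/665 nm ratio.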
(TR-FRET usually uses a lanthanide donor and a delayed reading to cut background.)

The target of assay [3] is T2, Aurora B (Homo sapiens, UniProt Q96GD4).
T2 construct: Active Aurora B enzyme (recombinant residues 1-344)
The assay is described as follows: Aurora B enzyme inhibition (time-resolved fluorescence, histone H3 peptide). The following applies: 1 mM ATP. The method, boiled down:
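Recombinant Aurora B (residues 1-344) with GST-INCENP phosphorylated biotinylated histone H3 (1-21) peptide at 1 mM ATP in HEPES pH 7.4 with MgCl2, orthovanadate and Triton X-100 for 1 h. After EDTA stop, the phosphopeptide was detected by TR-FRET (Eu-cryptate anti-phospho-H3 / SA-APC, 665/615 nm ratio). IC50 from an exponential fit.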

Sequence of KDR (P35968 789-1354): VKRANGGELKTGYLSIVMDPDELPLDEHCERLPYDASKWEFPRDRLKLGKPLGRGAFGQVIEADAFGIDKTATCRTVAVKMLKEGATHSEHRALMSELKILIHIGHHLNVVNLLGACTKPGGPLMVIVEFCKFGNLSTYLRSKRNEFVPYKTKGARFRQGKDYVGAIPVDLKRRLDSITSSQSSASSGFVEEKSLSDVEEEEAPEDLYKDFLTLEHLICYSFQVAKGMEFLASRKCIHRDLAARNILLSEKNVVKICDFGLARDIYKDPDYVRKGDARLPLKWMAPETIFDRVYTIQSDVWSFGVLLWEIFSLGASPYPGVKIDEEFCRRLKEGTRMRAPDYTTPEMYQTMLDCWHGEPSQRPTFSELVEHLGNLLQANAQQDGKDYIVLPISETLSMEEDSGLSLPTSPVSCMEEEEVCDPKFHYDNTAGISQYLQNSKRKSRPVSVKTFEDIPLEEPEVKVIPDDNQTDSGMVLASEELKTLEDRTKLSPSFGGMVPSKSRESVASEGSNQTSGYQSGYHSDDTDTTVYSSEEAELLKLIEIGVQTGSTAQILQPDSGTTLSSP
T2 sequence (Q96GD4 whole entry, the tested form may be a part): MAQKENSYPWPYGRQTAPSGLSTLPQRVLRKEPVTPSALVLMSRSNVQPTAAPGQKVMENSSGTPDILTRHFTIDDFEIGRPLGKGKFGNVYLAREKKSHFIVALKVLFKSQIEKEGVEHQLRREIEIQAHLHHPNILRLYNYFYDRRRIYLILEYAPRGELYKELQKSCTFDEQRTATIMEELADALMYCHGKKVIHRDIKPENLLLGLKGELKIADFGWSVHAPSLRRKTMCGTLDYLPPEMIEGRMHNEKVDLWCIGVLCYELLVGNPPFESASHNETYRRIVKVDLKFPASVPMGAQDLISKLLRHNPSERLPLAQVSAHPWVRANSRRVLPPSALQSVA
T2 sequence (Q9NQS7 826-918 partner limits assumed): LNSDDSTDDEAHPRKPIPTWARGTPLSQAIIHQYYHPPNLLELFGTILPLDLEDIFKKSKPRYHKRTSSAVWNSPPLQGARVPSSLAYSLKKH

Consider `NC(=O)[C@@H]1[C@H](Nc2nc(Nc3cnn(CCN4CCOCC4)c3)ncc2Br)[C@H]2C=C[C@@H]1C2.NC(=O)[C@H]1[C@@H](Nc2nc(Nc3cnn(CCN4CCOCC4)c3)ncc2Br)[C@@H]2C=C[C@H]1C2` (mixture of isomers) [Example 39, (1S,2S,3R,4R)-3-[(5-bromo-2-{[1-(2-morpholin-4-ylethyl)-1H-pyrazol-4-yl]amino}pyrimidin-4-yl)amino]bicyclo[2.2.1]hept-5-ene-2-carboxamide and (1R,2R,3S,4S)-3-[(5-bromo-2-{[1-(2-morpholin-4-ylethyl)-1H-pyrazol-4-yl]amino}pyrimidin-4-yl)amino]bicyclo[2.2.1]hept-5-ene-2-carboxamide], for which the Ki in assay [1], in assay [2] and in assay [3] was below 100 nM in each case.
For the molecule `CCN(CC)CCn1cc(Nc2ncc(Cl)c(N[C@H]3[C@@H](C(N)=O)[C@@H]4C=C[C@H]3C4)n2)cn1` (racemic) [Example 35, (1S,2S,3R,4R)-3-{[5-chloro-2-({1-[2-(diethylamino)ethyl]-1H-pyrazol-4-yl}amino)pyrimidin-4-yl]amino}bicyclo[2.2.1]hept-5-ene-2-carboxamide and (1R,2R,3S,4S)-3-{[5-chloro-2-({1-[2-(diethylamino)ethyl]-1H-pyrazol-4-yl}amino)pyrimidin-4-yl]amino}bicyclo[2.2.1]hept-5-ene-2-carboxamide], the Ki in assay [1], in assay [2] and in assay [3] was below 100 nM in each case.
Turning to “(1S,2S,3R,4R)-3-[(5-chloro-2-{[1-(2-morpholin-4-ylethyl)-1H-pyrazol-4-yl]amino}pyrimidin-4-yl)amino]bicyclo[2.2.1]hept-5-ene-2-carboxamide and (1R,2R,3S,4S)-3-[(5-chloro-2-{[1-(2-morpholin-4-ylethyl)-1H-pyrazol-4-yl]amino}pyrimidin-4-yl)amino]bicyclo[2.2.1]hept-5-ene-2-carboxamide [Example 37]”, the Ki in assay [1], in assay [2] and in assay [3] was below 100 nM in each case.
On to `NC(=O)[C@@H]1[C@H]2CC[C@H](C2)[C@@H]1Nc1nc(Nc2cnn(CCO)c2)ncc1Cl.NC(=O)[C@H]1[C@@H]2CC[C@@H](C2)[C@H]1Nc1nc(Nc2cnn(CCO)c2)ncc1Cl` (mixture of isomers) [Example 59, (1R,2S,3R,4S)-3-[(5-chloro-2-{[1-(2-hydroxyethyl)-1H-pyrazol-4-yl]amino}pyrimidin-4-yl)amino]bicyclo[2.2.1]heptane-2-carboxamide and (1S,2R,3S,4R)-3-[(5-chloro-2-{[1-(2-hydroxyethyl)-1H-pyrazol-4-yl]amino}pyrimidin-4-yl)amino]bicyclo[2.2.1]heptane-2-carboxamide], for which the Ki in assay [1], in assay [2] and in assay [3] was below 100 nM throughout.
On to `CCn1cc(Nc2ncc(Br)c(N[C@H]3[C@@H](C(N)=O)[C@@H]4C=C[C@H]3C4)n2)cn1` [Example 79, (1S,2S,3R,4R)-3-({5-bromo-2-[(1-ethyl-1H-pyrazol-4-yl)amino]pyrimidin-4-yl}amino)bicyclo[2.2.1]hept-5-ene-2-carboxamide], for which the Ki in assay [1], in assay [2] and in assay [3] was below 100 nM each time.
Regarding `CC(C)OC(=O)Cn1cc(Nc2ncc(Br)c(N[C@@H]3[C@H](C(N)=O)[C@H]4C=C[C@@H]3C4)n2)cn1.CC(C)OC(=O)Cn1cc(Nc2ncc(Br)c(N[C@H]3[C@@H](C(N)=O)[C@@H]4C=C[C@H]3C4)n2)cn1` (mixture of isomers) [Example 55, isopropyl{4-[(4-{[(1S,2S,3R,4R)-3-(aminocarbonyl)bicyclo[2.2.1]hept-5-ene-2-yl]amino}-5-bromopyrimidin-2-yl)amino]-1H-pyrazol-1-yl}acetate and isopropyl{4-[(4-{[(1R,2R,3S,4S)-3-(aminocarbonyl)bicyclo[2.2.1]hept-5-ene-2-yl]amino}-5-bromopyrimidin-2-yl)amino]-1H-pyrazol-1-yl}acetate], the Ki in assay [1], in assay [2] and in assay [3] was below 100 nM each time.
As to `C[C@@H](O)Cn1cc(Nc2ncc(F)c(N[C@@H]3[C@H]4CC[C@H](C4)[C@@H]3C(N)=O)n2)cn1.C[C@@H](O)Cn1cc(Nc2ncc(F)c(N[C@H]3[C@@H]4CC[C@@H](C4)[C@H]3C(N)=O)n2)cn1` (mixture of isomers) [Example 16, (1S,2R,3S,4R)-3-{[5-fluoro-2-({1-[(2R)-2-hydroxypropyl]-1H-pyrazol-4-yl}amino)pyrimidin-4-yl]amino}bicyclo[2.2.1]heptane-2-carboxamide and (1R,2S,3R,4S)-3-{[5-fluoro-2-({1-[(2R)-2-hydroxypropyl]-1H-pyrazol-4-yl}amino)pyrimidin-4-yl]amino}bicyclo[2.2.1]heptane-2-carboxamide], the Ki in assay [1] fell in the range of 100 to 1000 nM; in assay [2] it was 1000 to 5000 nM; in assay [3], 100 to 1000 nM.
Turning to `CNC(=O)[C@@H]1[C@H](Nc2nc(Nc3cnn(C)c3)ncc2Cl)[C@H]2C=C[C@@H]1C2` (racemic) [Example 50, (1S,2S,3R,4R)-3-({5-chloro-2-[(1-methyl-1H-pyrazol-4-yl)amino]pyrimidin-4-yl}amino)-N-methylbicyclo[2.2.1]hept-5-ene-2-carboxamide and (1R,2R,3S,4S)-3-({5-chloro-2-[(1-methyl-1H-pyrazol-4-yl)amino]pyrimidin-4-yl}amino)-N-methylbicyclo[2.2.1]hept-5-ene-2-carboxamide], the Ki in assay [1], in assay [2] and in assay [3] was below 100 nM in each case.
In the case of `CCn1cc(Nc2ncc(C(F)(F)F)c(N[C@@H]3[C@H](C(=O)NC4CC4)[C@H]4C=C[C@@H]3C4)n2)cn1.CCn1cc(Nc2ncc(C(F)(F)F)c(N[C@H]3[C@@H](C(=O)NC4CC4)[C@@H]4C=C[C@H]3C4)n2)cn1` (mixture of isomers) [Example 71, (1S,2S,3R,4R)—N-cyclopropyl-3-{[2-[(1-ethyl-1H-pyrazol-4-yl)amino]-5-(trifluoromethyl)pyrimidin-4-yl]amino}bicyclo[2.2.1]hept-5-ene-2-carboxamide and (1R,2R,3S,4S)—N-cyclopropyl-3-{[2-[(1-ethyl-1H-pyrazol-4-yl)amino]-5-(trifluoromethyl)pyrimidin-4-yl]amino}bicyclo[2.2.1]hept-5-ene-2-carboxamide], the Ki in assay [1], in assay [2] and in assay [3] was below 100 nM each time.
For “(1S,2S,3R,4R)-3-[(5-chloro-2-{[1-(1-methylpiperidin-4-yl)-1H-pyrazol-4-yl]amino}pyrimidin-4-yl)amino]bicyclo[2.2.1]hept-5-ene-2-carboxamide and (1R,2R,3S,4S)-3-[(5-chloro-2-{[1-(1-methylpiperidin-4-yl)-1H-pyrazol-4-yl]amino}pyrimidin-4-yl)amino]bicyclo[2.2.1]hept-5-ene-2-carboxamide [Example 40]”, the inhibitory constant (Ki) in assay [1], in assay [2] and in assay [3] was below 100 nM throughout.
Turning to `NC(=O)[C@@H]1[C@H](Nc2nc(Nc3cnn(CCN4CCCC4)c3)ncc2Br)[C@H]2C=C[C@@H]1C2` (racemic) [Example 44, (1S,2S,3R,4R)-3-[(5-bromo-2-{[1-(2-pyrrolidin-1-ylethyl)-1H-pyrazol-4-yl]amino}pyrimidin-4-yl)amino]bicyclo[2.2.1]hept-5-ene-2-carboxamide and (1R,2R,3S,4S)-3-[(5-bromo-2-{[1-(2-pyrrolidin-1-ylethyl)-1H-pyrazol-4-yl]amino}pyrimidin-4-yl)amino]bicyclo[2.2.1]hept-5-ene-2-carboxamide], the Ki in assay [1], in assay [2] and in assay [3] was below 100 nM in each case.
